Assay: In vivo pharmacokinetics study of carfilzomib formulations, plasma carfilzomib by LC-MS
Settings: BALB/c nude, mouse, mice, intravenous via tail vein, 5.0 mg/kg
Experimental: The carfilzomib-loaded liposome was prepared based on the description in Example 17. In-vivo pharmacokinetics study was carried out in BALB/c nude mice. Carfilzomib drug solution (free drug) and liposomal carfilzomib were administered intravenously via the tail vein into the mice and the plasma concentration of carfilzomib of both formulations were monitored over time by LC-MS. The injection dose of both drug formulations was 5.0 mg/kg. After intravenous administration, blood was collected at pre-determined time points (3 mice per time point) and was placed into EDTA coated micro containers. The samples were then centrifuged to separate plasma. Plasma levels of carfilzomib were quantified by using LC-MS. PK parameters were then calculated from measured drug plasma concentrations over time.

CC(C)C[C@H](NC(=O)[C@H](CCc1ccccc1)NC(=O)CN1CCOCC1)C(=O)N[C@@H](Cc1ccccc1)C(=O)N[C@@H](CC(C)C)C(=O)[C@@]1(C)CO1 [Free carfilzomib, carfilzomib]
AUC(0-t): 486 ng·h/mL
clearance: 170 mL/min/kg
half-life: 19.2 min
Vd (read-out: Vdss): 5.36 L/kg

From US20260130856A1, “LIPOSOME COMPOSITIONS FOR DELIVERY OF COMPOUNDS AND METHODS THEREOF” (NanoTech Pharma Inc., priority 2022, published 2026)
